Assay results taken from the NIST ThermoML archive (doi:10.1016/j.tca.2015.08.007).
± gives the expanded uncertainty stated by the source.

Triple point temperature (Liquid crystal of unknown type)	SMILES	Triple point temperature (Nematic liquid crystal)
385.85 ± 2 K	CCCCCCCCCCOc1cc(C=NNC(=O)c2ccc(N=Cc3cc(OCCCCCCCCCC)c(OCCCCCCCCCC)c(OCCCCCCCCCC)c3)cc2)cc(OCCCCCCCCCC)c1OCCCCCCCCCC	
	CCCCCOc1ccc(-c2ccc(C#N)cc2)cc1 [4'-pentoxy-4-cyanobiphenyl]	339.75 ± 2 K
